One data set concerns Plasmodium falciparum. In words: Antiplasmodial activity against chloroquine-resistant Plasmodium falciparum K1 infected erythrocytes. The data set is classed as functional, organism-based.
In a further data set the target is T1, dUTP pyrophosphatase (Plasmodium falciparum 3D7, UniProt Q8II92).
T1 sequence (Q8II92 whole entry): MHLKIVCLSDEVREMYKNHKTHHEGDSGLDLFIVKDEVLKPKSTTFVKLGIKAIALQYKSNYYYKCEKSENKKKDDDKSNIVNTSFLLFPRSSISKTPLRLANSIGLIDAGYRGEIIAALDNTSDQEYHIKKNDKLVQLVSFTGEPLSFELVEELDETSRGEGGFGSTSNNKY
In words: Inhibition of Plasmodium falciparum dUTPase.

Another data set has as its system L6. In words: Cytotoxicity against rat L6 cells. The class given is cell-based.
Data set [1] deals with T2, Deoxyuridine 5'-triphosphate nucleotidohydrolase, mitochondrial (Homo sapiens, UniProt P33316).
T2 sequence (P33316 whole entry): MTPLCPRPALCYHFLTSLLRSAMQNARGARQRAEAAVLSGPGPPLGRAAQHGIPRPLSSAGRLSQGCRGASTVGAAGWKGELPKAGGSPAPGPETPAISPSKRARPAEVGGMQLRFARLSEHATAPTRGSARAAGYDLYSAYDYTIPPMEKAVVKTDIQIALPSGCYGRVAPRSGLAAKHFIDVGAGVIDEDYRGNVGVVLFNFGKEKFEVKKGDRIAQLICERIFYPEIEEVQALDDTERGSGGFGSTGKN
In words: Inhibition of human dUTPase.

Data set [2] can be described thus: Selectivity ratio of human dUTPase to Plasmodium falciparum dUTPase.

The structures appear in SMILES notation.

In turn, `CC(C)(C)[Si](OCCCCNC(=O)Cn1ccc(=O)[nH]c1=O)(c1ccccc1)c1ccccc1` returned an IC50 in the data set on Plasmodium falciparum of 3.7 µM. The Ki (at dUTP pyrophosphatase; in data set [1]) was greater than 1000 µM throughout. The compound further came in with an Activity in the data set on L6 of 33.4 µM. In addition, the Selectivity Index in data set [2] is greater than 1.

Regarding `O=C(Cn1ccc(=O)[nH]c1=O)NCCCNC(c1ccccc1)(c1ccccc1)c1ccccc1`, the IC50 in the data set with Plasmodium falciparum was determined as 2.5 µM. Also, the figures for the Ki (at dUTP pyrophosphatase; in data set [1]) were 23.1 µM and greater than 1000 µM, respectively. In the data set on L6, this compound showed an Activity of 102.2 µM. Further, the Selectivity Index in data set [2] was greater than 43.

`CC(C)(C)[Si](NCCCCCCn1ccc(=O)[nH]c1=O)(c1ccccc1)c1ccccc1`: the IC50 in the data set with Plasmodium falciparum worked out at 3.9 µM. Also, the Ki at dUTP pyrophosphatase is 8.5 µM; in data set [1], greater than 1000 µM. The compound also returned an Activity with L6 of 18 µM. Moreover, in data set [2], the Selectivity Index was greater than 117.

For `CC(C)(C)[Si](OCCCNC(=O)Cn1ccc(=O)[nH]c1=O)(c1ccccc1)c1ccccc1`, the IC50 in the data set with Plasmodium falciparum came out at 4.6 µM. In addition, the Ki (on dUTP pyrophosphatase; in data set [1]) was greater than 1000 µM in each case. The Activity in the data set with L6 was determined as 88.9 µM. The Selectivity Index in data set [2] is greater than 1.

In the data set on Plasmodium falciparum, `O=C(Cn1ccc(=O)[nH]c1=O)NCCNCCNC(c1ccccc1)(c1ccccc1)c1ccccc1` showed an IC50 of 4.5 µM. Further, the inhibition constant Ki (on dUTP pyrophosphatase; in data set [1]) was greater than 1000 µM in each case. Besides, in the data set with L6, the Activity worked out at 52.7 µM. In addition, the Selectivity Index in data set [2] is greater than 1.

In turn, `O=c1ccn(CCCCCNC(c2ccccc2)(c2ccccc2)c2ccccc2)c(=O)[nH]1` registered an Activity with L6 of 39 µM. Moreover, in data set [2], the Selectivity Index is greater than 232.

In the data set with L6, `O=c1ccn(CCCCCCNC(c2ccccc2)(c2ccccc2)c2ccccc2)c(=O)[nH]1` returned an Activity of 40 µM. The Selectivity Index in data set [2] was greater than 555.

Turning to `O=C(Cn1ccc(=O)[nH]c1=O)N(CCO)CCNC(c1ccccc1)(c1ccccc1)c1ccccc1`, the IC50 with Plasmodium falciparum was greater than 83 µM. In addition, the Ki (on dUTP pyrophosphatase; in data set [1]) was greater than 1000 µM each time. Moreover, the Activity in the data set on L6 was greater than 373 µM. Moreover, the Selectivity Index in data set [2] is greater than 1.

The compound `O=C(Cn1ccc(=O)[nH]c1=O)NCCCNCCCNC(c1ccccc1)(c1ccccc1)c1ccccc1` gave an IC50 with Plasmodium falciparum of 3.9 µM. The inhibitory constant (Ki) (on dUTP pyrophosphatase; in data set [1]) was greater than 1000 µM throughout. Moreover, the Activity with L6 was determined as 76.7 µM. Moreover, the Selectivity Index in data set [2] was greater than 1.

In the data set with Plasmodium falciparum, `O=C(Cn1ccc(=O)[nH]c1=O)NCCCCNC(c1ccccc1)(c1ccccc1)c1ccccc1` registered an IC50 of 2.9 µM. In addition, the Ki (at dUTP pyrophosphatase; in data set [1]) was greater than 1000 µM each time. In addition, the Activity in the data set with L6 is 42.7 µM. The Selectivity Index in data set [2] was greater than 1.

In the data set with Plasmodium falciparum, `O=C(Cn1ccc(=O)[nH]c1=O)NCCNC(c1ccccc1)(c1ccccc1)c1ccccc1` yielded an IC50 of 4.2 µM. Moreover, the results for the Ki (at dUTP pyrophosphatase; in data set [1]) were 37.3 µM and greater than 1000 µM, respectively. The compound also had an Activity with L6 of 53 µM. Besides, the Selectivity Index in data set [2] is greater than 26.

The values are drawn from ChEMBL document CHEMBL1153885, “Design, synthesis and evaluation of novel uracil acetamide derivatives as potential inhibitors of Plasmodium falciparum dUTP nucleotidohydrolase” (Eur J Med Chem, 2009).
